Reference: patent US20020111274A1, “1-alkyl-3-[1-(substituted phenyl) benzotriazol-6-yl] uracils” (BASF Aktiengesellschaft, priority 2000, published 2002)

How the values were obtained:
Set-up in all cases: scale not given here
[1] = system: ZEAMX Corn, Field; assay: Preemergence herbicidal evaluation, ZEAMX; format: in vivo, Zea mays, L. (Sammel-Bezeichnung); details: preemergence
Summary of the method: (§1)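 Preemergence soil spray: aqueous acetone, ~0.013–0.800 kg/ha, applied right after sowing (seed/potting-soil mix over ~1 in soil). Greenhouse, routine watering. Scored 4–5 wk post-treatment on a rating scale.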

[2] = system: GLXMAW Soybean, Williams; assay: Preemergence herbicidal evaluation, GLXMAW; format: in vivo, Glycine max, (L.) Merr. cv Williams; details: preemergence
Summary of the method: as §1

[3] = system: CASOB Sicklepod; assay: Postemergence herbicidal evaluation, CASOB; format: in vivo, Cassia obtusifolia, L.; details: postemergence spray, rated about two-three weeks after treatment
Summary of the method: (§2)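 Plants are raised for roughly two weeks, then treated postemergence with compound dispersed in acetone/water (80/20) plus 1.0% seed oil adjuvant, at rates of about 0.006 kg to 0.400 kg per hectare. After greenhouse care, damage is scored two to three weeks later.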

[4] = system: CHEAL Lambsquarters, Common; assay: Preemergence herbicidal evaluation, CHEAL; format: in vivo, Chenopodium album, L.; details: preemergence
Summary of the method: as §1

[5] = system: GLXMAW Soybean, Williams; assay: Postemergence herbicidal evaluation, GLXMAW; format: in vivo, Glycine max, (L.) Merr. cv Williams; details: postemergence spray, rated about two-three weeks after treatment
Summary of the method: as §2

[6] = system: CASOB Sicklepod; assay: Preemergence herbicidal evaluation, CASOB; format: in vivo, Cassia obtusifolia, L.; details: preemergence
Summary of the method: as §1

[7] = system: ABUTH Velvetleaf; assay: Postemergence herbicidal evaluation, ABUTH; format: in vivo, Abutilon theophrasti, Medic.; details: postemergence spray, rated about two-three weeks after treatment
Summary of the method: as §2

[8] = system: AMBEL Ragweed, Common; assay: Preemergence herbicidal evaluation, AMBEL; format: in vivo, Ambrosia artemisifolia, L.; details: preemergence
Summary of the method: as §1

[9] = system: IPOHE Morningglory, Ivyleaf; assay: Postemergence herbicidal evaluation, IPOHE; format: in vivo, Ipomoea hederacea, (L.) Jacq.; details: postemergence spray, rated about two-three weeks after treatment
Summary of the method: as §2

[10] = system: IPOHE Morningglory, Ivyleaf; assay: Preemergence herbicidal evaluation, IPOHE; format: in vivo, Ipomoea hederacea, (L.) Jacq.; details: preemergence
Summary of the method: as §1

[11] = system: ECHOG Barnyardgrass; assay: Postemergence herbicidal evaluation, ECHOG; format: in vivo, Echinochloa crus-galli, (L.) Beau; details: postemergence spray, rated about two-three weeks after treatment
Summary of the method: as §2

[12] = system: SETVI Foxtail, Green; assay: Postemergence herbicidal evaluation, SETVI; format: in vivo, Setaria viridis, (L.) Beau; details: postemergence spray, rated about two-three weeks after treatment
Summary of the method: as §2

[13] = system: ORYSAT Rice, Tebonnet; assay: Preemergence herbicidal evaluation, ORYSAT; format: in vivo, Oryza sativa, (L.); details: preemergence
Summary of the method: as §1

[14] = system: AMBEL Ragweed, Common; assay: Postemergence herbicidal evaluation, AMBEL; format: in vivo, Ambrosia artemisifolia, L.; details: postemergence spray, rated about two-three weeks after treatment
Summary of the method: as §2

[15] = system: GALAP Galium; assay: Preemergence herbicidal evaluation, GALAP; format: in vivo, Galium aparine; details: preemergence
Summary of the method: as §1

[16] = system: ABUTH Velvetleaf; assay: Preemergence herbicidal evaluation, ABUTH; format: in vivo, Abutilon theophrasti, Medic.; details: preemergence
Summary of the method: as §1

[17] = system: GALAP Galium; assay: Postemergence herbicidal evaluation, GALAP; format: in vivo, Galium aparine; details: postemergence spray, rated about two-three weeks after treatment
Summary of the method: as §2

[18] = system: CHEAL Lambsquarters, Common; assay: Postemergence herbicidal evaluation, CHEAL; format: in vivo, Chenopodium album, L.; details: postemergence spray, rated about two-three weeks after treatment
Summary of the method: as §2

[19] = system: SETVI Foxtail, Green; assay: Preemergence herbicidal evaluation, SETVI; format: in vivo, Setaria viridis, (L.) Beau; details: preemergence
Summary of the method: as §1

[20] = system: TRZAWR Wheat, Winter, cv Riband; assay: Postemergence herbicidal evaluation, TRZAWR; format: in vivo, Triticum aestivum; details: postemergence spray, rated about two-three weeks after treatment
Summary of the method: as §2

[21] = system: ZEAMX Corn, Field; assay: Postemergence herbicidal evaluation, ZEAMX; format: in vivo, Zea mays, L. (Sammel-Bezeichnung); details: postemergence spray, rated about two-three weeks after treatment
Summary of the method: as §2

[22] = system: TRZAWR Wheat, Winter, cv Riband; assay: Preemergence herbicidal evaluation, TRZAWR; format: in vivo, Triticum aestivum; details: preemergence
Summary of the method: as §1

[23] = system: ORYSAT Rice, Tebonnet; assay: Postemergence herbicidal evaluation, ORYSAT; format: in vivo, Oryza sativa, (L.); details: postemergence spray, rated about two-three weeks after treatment
Summary of the method: as §2

[24] = system: ECHOG Barnyardgrass; assay: Preemergence herbicidal evaluation, ECHOG; format: in vivo, Echinochloa crus-galli, (L.) Beau; details: preemergence
Summary of the method: as §1

## Cc1ccc(-n2nnc3cc(F)c(-n4c(=O)cc(C(F)(F)F)n(C)c4=O)cc32)cc1 [Example 19]
[1]; rate 0.016 kg/ha
  ZEAMX herbicidal rating: 1.0
[1]; rate 0.032 kg/ha
  ZEAMX herbicidal rating: 1.5
[1]; rate 0.062 kg/ha
  ZEAMX herbicidal rating: 4.0
[1]; rate 0.125 kg/ha
  ZEAMX herbicidal rating: 6.5
[2]; rate 0.016 kg/ha
  GLXMAW herbicidal rating: 0.5
[2]; rate 0.032 kg/ha
  GLXMAW herbicidal rating: 1.5
[2]; rate 0.062 kg/ha
  GLXMAW herbicidal rating: 2.5
[2]; rate 0.125 kg/ha
  GLXMAW herbicidal rating: 4.0
[3]; 0.008 kg/ha
  Postemergence herbicidal rating CASOB: 0.0
[3]; 0.016 kg/ha
  Postemergence herbicidal rating CASOB: 0.0
[3]; 0.032 kg/ha
  Postemergence herbicidal rating CASOB: 2.0
[3]; 0.062 kg/ha
  Postemergence herbicidal rating CASOB: 2.0
[4]; rate 0.016 kg/ha
  CHEAL herbicidal rating: 9.0
[4]; rate 0.032 kg/ha
  CHEAL herbicidal rating: 9.0
[4]; rate 0.062 kg/ha
  CHEAL herbicidal rating: 9.0
[4]; rate 0.125 kg/ha
  CHEAL herbicidal rating: 9.0
[5]; 0.008 kg/ha
  Postemergence herbicidal rating GLXMAW: 4.5
[5]; 0.016 kg/ha
  Postemergence herbicidal rating GLXMAW: 5.5
[5]; 0.032 kg/ha
  Postemergence herbicidal rating GLXMAW: 6.5
[5]; 0.062 kg/ha
  Postemergence herbicidal rating GLXMAW: 7.5
[6]; rate 0.016 kg/ha
  CASOB herbicidal rating: 1.0
[6]; rate 0.032 kg/ha
  CASOB herbicidal rating: 1.5
[6]; rate 0.062 kg/ha
  CASOB herbicidal rating: 1.5
[6]; rate 0.125 kg/ha
  CASOB herbicidal rating: 1.0
[7]; 0.008 kg/ha
  Postemergence herbicidal rating ABUTH: 9.0
[7]; 0.016 kg/ha
  Postemergence herbicidal rating ABUTH: 9.0
[7]; 0.032 kg/ha
  Postemergence herbicidal rating ABUTH: 9.0
[7]; 0.062 kg/ha
  Postemergence herbicidal rating ABUTH: 9.0
[8]; rate 0.016 kg/ha
  AMBEL herbicidal rating: 4.5
[8]; rate 0.032 kg/ha
  AMBEL herbicidal rating: 5.5
[8]; rate 0.062 kg/ha
  AMBEL herbicidal rating: 8.0
[8]; rate 0.125 kg/ha
  AMBEL herbicidal rating: 9.0
[9]; 0.008 kg/ha
  Postemergence herbicidal rating IPOHE: 4.0
[9]; 0.016 kg/ha
  Postemergence herbicidal rating IPOHE: 4.0
[9]; 0.032 kg/ha
  Postemergence herbicidal rating IPOHE: 9.0
[9]; 0.062 kg/ha
  Postemergence herbicidal rating IPOHE: 9.0
[10]; rate 0.016 kg/ha
  IPOHE herbicidal rating: 1.0
[10]; rate 0.032 kg/ha
  IPOHE herbicidal rating: 1.5
[10]; rate 0.062 kg/ha
  IPOHE herbicidal rating: 5.5
[10]; rate 0.125 kg/ha
  IPOHE herbicidal rating: 8.0
[11]; 0.008 kg/ha
  Postemergence herbicidal rating ECHCG: 0.0
[11]; 0.016 kg/ha
  Postemergence herbicidal rating ECHCG: 0.0
[11]; 0.032 kg/ha
  Postemergence herbicidal rating ECHCG: 0.0
[11]; 0.062 kg/ha
  Postemergence herbicidal rating ECHCG: 0.0
[12]; 0.008 kg/ha
  Postemergence herbicidal rating SETVI: 0.0
[12]; 0.016 kg/ha
  Postemergence herbicidal rating SETVI: 0.0
[12]; 0.032 kg/ha
  Postemergence herbicidal rating SETVI: 0.0
[12]; 0.062 kg/ha
  Postemergence herbicidal rating SETVI: 3.0
[13]; rate 0.016 kg/ha
  ORYSAT herbicidal rating: 0.0
[13]; rate 0.032 kg/ha
  ORYSAT herbicidal rating: 0.5
[13]; rate 0.062 kg/ha
  ORYSAT herbicidal rating: 1.5
[13]; rate 0.125 kg/ha
  ORYSAT herbicidal rating: 2.0
[14]; 0.008 kg/ha
  Postemergence herbicidal rating AMBEL: 0.0
[14]; 0.016 kg/ha
  Postemergence herbicidal rating AMBEL: 1.0
[14]; 0.032 kg/ha
  Postemergence herbicidal rating AMBEL: 4.0
[14]; 0.062 kg/ha
  Postemergence herbicidal rating AMBEL: 5.0
[15]; rate 0.016 kg/ha
  GALAP herbicidal rating: 0.0
[15]; rate 0.032 kg/ha
  GALAP herbicidal rating: 0.0
[15]; rate 0.062 kg/ha
  GALAP herbicidal rating: 0.0
[15]; rate 0.125 kg/ha
  GALAP herbicidal rating: 9.0
[16]; rate 0.016 kg/ha
  ABUTH herbicidal rating: 1.0
[16]; rate 0.032 kg/ha
  ABUTH herbicidal rating: 6.5
[16]; rate 0.062 kg/ha
  ABUTH herbicidal rating: 9.0
[16]; rate 0.125 kg/ha
  ABUTH herbicidal rating: 9.0
[17]; 0.008 kg/ha
  Postemergence herbicidal rating GALAP: 0.0
[17]; 0.016 kg/ha
  Postemergence herbicidal rating GALAP: 3.0
[17]; 0.032 kg/ha
  Postemergence herbicidal rating GALAP: 4.0
[17]; 0.062 kg/ha
  Postemergence herbicidal rating GALAP: 4.0
[18]; 0.008 kg/ha
  Postemergence herbicidal rating CHEAL: 1.0
[18]; 0.016 kg/ha
  Postemergence herbicidal rating CHEAL: 2.0
[18]; 0.032 kg/ha
  Postemergence herbicidal rating CHEAL: 3.0
[18]; 0.062 kg/ha
  Postemergence herbicidal rating CHEAL: 5.0
[19]; rate 0.016 kg/ha
  SETVI herbicidal rating: 4.5
[19]; rate 0.032 kg/ha
  SETVI herbicidal rating: 7.0
[19]; rate 0.062 kg/ha
  SETVI herbicidal rating: 9.0
[19]; rate 0.125 kg/ha
  SETVI herbicidal rating: 9.0
[20]; 0.008 kg/ha
  Postemergence herbicidal rating TRZAWR: 2.5
[20]; 0.016 kg/ha
  Postemergence herbicidal rating TRZAWR: 3.5
[20]; 0.032 kg/ha
  Postemergence herbicidal rating TRZAWR: 4.0
[20]; 0.062 kg/ha
  Postemergence herbicidal rating TRZAWR: 4.5
[21]; 0.008 kg/ha
  Postemergence herbicidal rating ZEAMX: 4.5
[21]; 0.016 kg/ha
  Postemergence herbicidal rating ZEAMX: 4.5
[21]; 0.032 kg/ha
  Postemergence herbicidal rating ZEAMX: 5.0
[21]; 0.062 kg/ha
  Postemergence herbicidal rating ZEAMX: 5.5
[22]; rate 0.016 kg/ha
  TRZAWR herbicidal rating: 0.0
[22]; rate 0.032 kg/ha
  TRZAWR herbicidal rating: 1.0
[22]; rate 0.062 kg/ha
  TRZAWR herbicidal rating: 2.0
[22]; rate 0.125 kg/ha
  TRZAWR herbicidal rating: 3.0
[23]; 0.008 kg/ha
  Postemergence herbicidal rating ORYSAT: 2.0
[23]; 0.016 kg/ha
  Postemergence herbicidal rating ORYSAT: 2.5
[23]; 0.032 kg/ha
  Postemergence herbicidal rating ORYSAT: 3.0
[23]; 0.062 kg/ha
  Postemergence herbicidal rating ORYSAT: 4.0
[24]; rate 0.016 kg/ha
  ECHCG herbicidal rating: 0.5
[24]; rate 0.032 kg/ha
  ECHCG herbicidal rating: 4.0
[24]; rate 0.062 kg/ha
  ECHCG herbicidal rating: 7.0
[24]; rate 0.125 kg/ha
  ECHCG herbicidal rating: 9.0
